Assay results taken from ChEMBL document CHEMBL3098008, “Lactam based 7-amino suberoylamide hydroxamic acids as potent HDAC inhibitors” (Bioorg Med Chem Lett, 2014).

Test system: not listed separately
Test: Cytotoxicity against human H460 cells
Type: functional, cell-based
Settings: NCI-H460

| Compound | IC50 [nM] |
| --- | --- |
| O=C(CCCCCCC(=O)Nc1cccc(C(F)(F)F)c1)NO | 2500 |
| O=C(CCCCC[C@H](NC(=O)[C@H]1CCC(=O)N1)C(=O)Nc1cccc(C(F)(F)F)c1)NO | 500 |
| Cc1cccc(NC(=O)CCCCCCC(=O)NO)c1 | 800 |
| Cc1cccc(NC(=O)[C@H](CCCCCC(=O)NO)NC(=O)[C@H]2CCC(=O)N2)c1 | 500 |
| Cc1ccc(NC(=O)CCCCCCC(=O)NO)cc1 | 4100 |
| Cc1ccc(NC(=O)[C@H](CCCCCC(=O)NO)NC(=O)[C@H]2CCC(=O)N2)cc1 | 600 |
| O=C(CCCCC[C@H](NC(=O)[C@@H]1CCCC(=O)N1)C(=O)NCCc1ccccc1)NO | 8200 |
| O=C(CCCCC[C@H](NC(=O)[C@H]1CCC(=O)N1)C(=O)NCCc1ccccc1)NO | 4900 |
| O=C(CCCCC[C@H](NC(=O)[C@@H]1CCCC(=O)N1)C(=O)Nc1ccccc1)NO | 2500 |

Target: T1, Histone deacetylase 11 (Homo sapiens, UniProt Q96DB2)
T1 sequence (Q96DB2 whole entry): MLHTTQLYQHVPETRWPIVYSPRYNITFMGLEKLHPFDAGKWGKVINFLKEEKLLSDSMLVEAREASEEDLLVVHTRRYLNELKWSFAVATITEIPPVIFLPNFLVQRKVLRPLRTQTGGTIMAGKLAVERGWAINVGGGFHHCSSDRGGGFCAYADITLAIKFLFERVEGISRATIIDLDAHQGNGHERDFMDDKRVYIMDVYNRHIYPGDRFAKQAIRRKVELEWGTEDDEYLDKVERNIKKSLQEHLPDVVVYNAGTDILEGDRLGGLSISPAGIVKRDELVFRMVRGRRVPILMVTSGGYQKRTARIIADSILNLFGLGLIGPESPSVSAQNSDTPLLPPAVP
Test: Inhibition of human HDAC11 using RHKK(Ac) as substrate by fluorimetric analysis
Settings: not given

| Compound | IC50 [nM] |
| --- | --- |
| O=C(CCCCCCC(=O)Nc1cccc(C(F)(F)F)c1)NO | 75.1 |
| O=C(CCCCC[C@H](NC(=O)[C@H]1CCC(=O)N1)C(=O)Nc1cccc(C(F)(F)F)c1)NO | 55.5 |
| Cc1cccc(NC(=O)CCCCCCC(=O)NO)c1 | 1600 |
| Cc1cccc(NC(=O)[C@H](CCCCCC(=O)NO)NC(=O)[C@H]2CCC(=O)N2)c1 | 15.5 |
| Cc1ccc(NC(=O)CCCCCCC(=O)NO)cc1 | 78.6 |
| Cc1ccc(NC(=O)[C@H](CCCCCC(=O)NO)NC(=O)[C@H]2CCC(=O)N2)cc1 | 127 |
| O=C(CCCCC[C@H](NC(=O)[C@@H]1CCCC(=O)N1)C(=O)NCCc1ccccc1)NO | 262 |
| O=C(CCCCC[C@H](NC(=O)[C@H]1CCC(=O)N1)C(=O)NCCc1ccccc1)NO | 47.8 |
| O=C(CCCCC[C@H](NC(=O)[C@@H]1CCCC(=O)N1)C(=O)Nc1ccccc1)NO | 47 |

Target: T2, Polyamine deacetylase HDAC10 (Homo sapiens, UniProt Q969S8)
T2 sequence (Q969S8 whole entry): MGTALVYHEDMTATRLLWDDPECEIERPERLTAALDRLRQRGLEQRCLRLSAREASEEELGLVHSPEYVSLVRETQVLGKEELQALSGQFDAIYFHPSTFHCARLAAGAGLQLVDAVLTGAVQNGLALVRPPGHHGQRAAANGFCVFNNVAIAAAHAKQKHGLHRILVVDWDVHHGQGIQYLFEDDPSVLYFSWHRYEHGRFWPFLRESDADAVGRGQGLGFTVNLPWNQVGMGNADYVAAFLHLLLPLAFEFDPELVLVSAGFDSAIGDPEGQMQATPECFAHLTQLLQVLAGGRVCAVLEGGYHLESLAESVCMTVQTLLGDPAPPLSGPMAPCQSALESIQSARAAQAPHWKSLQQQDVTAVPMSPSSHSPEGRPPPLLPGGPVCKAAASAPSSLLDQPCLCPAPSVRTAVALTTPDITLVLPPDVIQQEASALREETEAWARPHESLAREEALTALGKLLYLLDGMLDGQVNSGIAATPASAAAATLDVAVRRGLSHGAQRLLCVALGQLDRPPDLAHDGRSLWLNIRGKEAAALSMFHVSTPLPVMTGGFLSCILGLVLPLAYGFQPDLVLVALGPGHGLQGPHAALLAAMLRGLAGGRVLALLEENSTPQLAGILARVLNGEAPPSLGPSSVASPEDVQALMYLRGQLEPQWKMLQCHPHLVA
Test: Inhibition of human HDAC10 using RHKK(Ac) as substrate by fluorimetric analysis
Settings: not given

| Compound | IC50 [nM] |
| --- | --- |
| O=C(CCCCCCC(=O)Nc1cccc(C(F)(F)F)c1)NO | 374 |
| O=C(CCCCC[C@H](NC(=O)[C@H]1CCC(=O)N1)C(=O)Nc1cccc(C(F)(F)F)c1)NO | 10.6 |
| Cc1cccc(NC(=O)CCCCCCC(=O)NO)c1 | 503 |
| Cc1cccc(NC(=O)[C@H](CCCCCC(=O)NO)NC(=O)[C@H]2CCC(=O)N2)c1 | 30.3 |
| Cc1ccc(NC(=O)CCCCCCC(=O)NO)cc1 | 649 |
| Cc1ccc(NC(=O)[C@H](CCCCCC(=O)NO)NC(=O)[C@H]2CCC(=O)N2)cc1 | 163 |
| O=C(CCCCC[C@H](NC(=O)[C@@H]1CCCC(=O)N1)C(=O)NCCc1ccccc1)NO | 227 |
| O=C(CCCCC[C@H](NC(=O)[C@H]1CCC(=O)N1)C(=O)NCCc1ccccc1)NO | 210 |
| O=C(CCCCC[C@H](NC(=O)[C@@H]1CCCC(=O)N1)C(=O)Nc1ccccc1)NO | 51 |

Target: T3, Protein deacetylase HDAC6 (Homo sapiens, UniProt Q9UBN7)
T3 sequence (Q9UBN7 whole entry): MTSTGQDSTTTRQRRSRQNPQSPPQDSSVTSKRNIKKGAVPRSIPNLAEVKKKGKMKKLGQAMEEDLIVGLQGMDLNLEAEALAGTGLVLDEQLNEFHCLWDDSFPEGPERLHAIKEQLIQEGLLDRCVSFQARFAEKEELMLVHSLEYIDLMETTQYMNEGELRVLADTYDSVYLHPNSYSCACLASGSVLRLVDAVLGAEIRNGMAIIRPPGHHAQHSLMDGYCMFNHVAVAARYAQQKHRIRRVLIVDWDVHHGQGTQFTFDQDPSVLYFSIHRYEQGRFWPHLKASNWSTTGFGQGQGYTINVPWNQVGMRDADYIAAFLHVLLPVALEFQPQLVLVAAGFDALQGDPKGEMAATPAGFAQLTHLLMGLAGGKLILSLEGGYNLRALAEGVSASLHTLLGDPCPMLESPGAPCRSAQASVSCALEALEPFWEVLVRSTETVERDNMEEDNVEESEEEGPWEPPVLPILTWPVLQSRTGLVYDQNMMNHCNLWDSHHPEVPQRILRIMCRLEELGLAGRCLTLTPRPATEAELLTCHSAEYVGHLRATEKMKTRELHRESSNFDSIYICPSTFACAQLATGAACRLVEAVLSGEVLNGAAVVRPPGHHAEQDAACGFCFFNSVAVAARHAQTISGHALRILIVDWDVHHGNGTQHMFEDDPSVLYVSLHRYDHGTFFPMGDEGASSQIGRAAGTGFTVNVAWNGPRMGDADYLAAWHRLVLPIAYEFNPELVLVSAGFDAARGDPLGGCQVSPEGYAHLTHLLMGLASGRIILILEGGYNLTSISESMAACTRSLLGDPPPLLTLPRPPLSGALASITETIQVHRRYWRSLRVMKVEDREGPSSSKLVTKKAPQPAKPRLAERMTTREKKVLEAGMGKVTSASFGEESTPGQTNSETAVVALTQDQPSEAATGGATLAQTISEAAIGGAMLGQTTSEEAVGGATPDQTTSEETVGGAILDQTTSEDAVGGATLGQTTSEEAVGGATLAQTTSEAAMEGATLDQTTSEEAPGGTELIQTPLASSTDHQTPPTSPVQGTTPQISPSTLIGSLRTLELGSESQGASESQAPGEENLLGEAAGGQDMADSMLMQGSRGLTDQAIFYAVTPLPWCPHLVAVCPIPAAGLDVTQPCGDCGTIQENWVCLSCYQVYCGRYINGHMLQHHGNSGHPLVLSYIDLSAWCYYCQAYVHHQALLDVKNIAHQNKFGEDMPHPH
Test: Inhibition of human HDAC6 using RHKK(Ac) as substrate by fluorimetric analysis
Settings: not given

| Compound | IC50 [nM] |
| --- | --- |
| O=C(CCCCCCC(=O)Nc1cccc(C(F)(F)F)c1)NO | 6 |
| O=C(CCCCC[C@H](NC(=O)[C@H]1CCC(=O)N1)C(=O)Nc1cccc(C(F)(F)F)c1)NO | 2 |
| Cc1cccc(NC(=O)CCCCCCC(=O)NO)c1 | 22 |
| Cc1cccc(NC(=O)[C@H](CCCCCC(=O)NO)NC(=O)[C@H]2CCC(=O)N2)c1 | 3 |
| Cc1ccc(NC(=O)CCCCCCC(=O)NO)cc1 | 12 |
| Cc1ccc(NC(=O)[C@H](CCCCCC(=O)NO)NC(=O)[C@H]2CCC(=O)N2)cc1 | 4 |
| O=C(CCCCC[C@H](NC(=O)[C@@H]1CCCC(=O)N1)C(=O)NCCc1ccccc1)NO | 8 |
| O=C(CCCCC[C@H](NC(=O)[C@H]1CCC(=O)N1)C(=O)NCCc1ccccc1)NO | 6 |
| O=C(CCCCC[C@H](NC(=O)[C@@H]1CCCC(=O)N1)C(=O)Nc1ccccc1)NO | 5 |

Target: Histone deacetylase 3/Nuclear receptor corepressor 2 (HDAC3/NCoR2) (Homo sapiens, UniProt O15379)
Test: Inhibition of human HDAC3/NCOR2 using RHKK(Ac) as substrate by fluorimetric analysis
Type: protein-complex assay
Settings: not given

Sequence of Histone deacetylase 3/Nuclear receptor corepressor 2 (HDAC3/NCoR2) (O15379 whole entry): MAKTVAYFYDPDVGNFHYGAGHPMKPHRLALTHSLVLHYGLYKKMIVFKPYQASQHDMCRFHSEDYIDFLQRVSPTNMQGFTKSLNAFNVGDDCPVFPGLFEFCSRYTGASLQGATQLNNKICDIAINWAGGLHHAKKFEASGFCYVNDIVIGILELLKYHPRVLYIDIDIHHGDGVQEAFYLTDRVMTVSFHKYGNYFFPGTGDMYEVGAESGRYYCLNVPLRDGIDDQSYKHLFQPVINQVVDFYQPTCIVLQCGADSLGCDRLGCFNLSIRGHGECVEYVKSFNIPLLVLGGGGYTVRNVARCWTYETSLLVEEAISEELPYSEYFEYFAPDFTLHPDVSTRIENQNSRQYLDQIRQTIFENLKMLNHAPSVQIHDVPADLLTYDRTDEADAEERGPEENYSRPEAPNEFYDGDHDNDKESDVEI
Sequence of Histone deacetylase 3/Nuclear receptor corepressor 2 (HDAC3/NCoR2) (Q9Y618 whole entry, further chain): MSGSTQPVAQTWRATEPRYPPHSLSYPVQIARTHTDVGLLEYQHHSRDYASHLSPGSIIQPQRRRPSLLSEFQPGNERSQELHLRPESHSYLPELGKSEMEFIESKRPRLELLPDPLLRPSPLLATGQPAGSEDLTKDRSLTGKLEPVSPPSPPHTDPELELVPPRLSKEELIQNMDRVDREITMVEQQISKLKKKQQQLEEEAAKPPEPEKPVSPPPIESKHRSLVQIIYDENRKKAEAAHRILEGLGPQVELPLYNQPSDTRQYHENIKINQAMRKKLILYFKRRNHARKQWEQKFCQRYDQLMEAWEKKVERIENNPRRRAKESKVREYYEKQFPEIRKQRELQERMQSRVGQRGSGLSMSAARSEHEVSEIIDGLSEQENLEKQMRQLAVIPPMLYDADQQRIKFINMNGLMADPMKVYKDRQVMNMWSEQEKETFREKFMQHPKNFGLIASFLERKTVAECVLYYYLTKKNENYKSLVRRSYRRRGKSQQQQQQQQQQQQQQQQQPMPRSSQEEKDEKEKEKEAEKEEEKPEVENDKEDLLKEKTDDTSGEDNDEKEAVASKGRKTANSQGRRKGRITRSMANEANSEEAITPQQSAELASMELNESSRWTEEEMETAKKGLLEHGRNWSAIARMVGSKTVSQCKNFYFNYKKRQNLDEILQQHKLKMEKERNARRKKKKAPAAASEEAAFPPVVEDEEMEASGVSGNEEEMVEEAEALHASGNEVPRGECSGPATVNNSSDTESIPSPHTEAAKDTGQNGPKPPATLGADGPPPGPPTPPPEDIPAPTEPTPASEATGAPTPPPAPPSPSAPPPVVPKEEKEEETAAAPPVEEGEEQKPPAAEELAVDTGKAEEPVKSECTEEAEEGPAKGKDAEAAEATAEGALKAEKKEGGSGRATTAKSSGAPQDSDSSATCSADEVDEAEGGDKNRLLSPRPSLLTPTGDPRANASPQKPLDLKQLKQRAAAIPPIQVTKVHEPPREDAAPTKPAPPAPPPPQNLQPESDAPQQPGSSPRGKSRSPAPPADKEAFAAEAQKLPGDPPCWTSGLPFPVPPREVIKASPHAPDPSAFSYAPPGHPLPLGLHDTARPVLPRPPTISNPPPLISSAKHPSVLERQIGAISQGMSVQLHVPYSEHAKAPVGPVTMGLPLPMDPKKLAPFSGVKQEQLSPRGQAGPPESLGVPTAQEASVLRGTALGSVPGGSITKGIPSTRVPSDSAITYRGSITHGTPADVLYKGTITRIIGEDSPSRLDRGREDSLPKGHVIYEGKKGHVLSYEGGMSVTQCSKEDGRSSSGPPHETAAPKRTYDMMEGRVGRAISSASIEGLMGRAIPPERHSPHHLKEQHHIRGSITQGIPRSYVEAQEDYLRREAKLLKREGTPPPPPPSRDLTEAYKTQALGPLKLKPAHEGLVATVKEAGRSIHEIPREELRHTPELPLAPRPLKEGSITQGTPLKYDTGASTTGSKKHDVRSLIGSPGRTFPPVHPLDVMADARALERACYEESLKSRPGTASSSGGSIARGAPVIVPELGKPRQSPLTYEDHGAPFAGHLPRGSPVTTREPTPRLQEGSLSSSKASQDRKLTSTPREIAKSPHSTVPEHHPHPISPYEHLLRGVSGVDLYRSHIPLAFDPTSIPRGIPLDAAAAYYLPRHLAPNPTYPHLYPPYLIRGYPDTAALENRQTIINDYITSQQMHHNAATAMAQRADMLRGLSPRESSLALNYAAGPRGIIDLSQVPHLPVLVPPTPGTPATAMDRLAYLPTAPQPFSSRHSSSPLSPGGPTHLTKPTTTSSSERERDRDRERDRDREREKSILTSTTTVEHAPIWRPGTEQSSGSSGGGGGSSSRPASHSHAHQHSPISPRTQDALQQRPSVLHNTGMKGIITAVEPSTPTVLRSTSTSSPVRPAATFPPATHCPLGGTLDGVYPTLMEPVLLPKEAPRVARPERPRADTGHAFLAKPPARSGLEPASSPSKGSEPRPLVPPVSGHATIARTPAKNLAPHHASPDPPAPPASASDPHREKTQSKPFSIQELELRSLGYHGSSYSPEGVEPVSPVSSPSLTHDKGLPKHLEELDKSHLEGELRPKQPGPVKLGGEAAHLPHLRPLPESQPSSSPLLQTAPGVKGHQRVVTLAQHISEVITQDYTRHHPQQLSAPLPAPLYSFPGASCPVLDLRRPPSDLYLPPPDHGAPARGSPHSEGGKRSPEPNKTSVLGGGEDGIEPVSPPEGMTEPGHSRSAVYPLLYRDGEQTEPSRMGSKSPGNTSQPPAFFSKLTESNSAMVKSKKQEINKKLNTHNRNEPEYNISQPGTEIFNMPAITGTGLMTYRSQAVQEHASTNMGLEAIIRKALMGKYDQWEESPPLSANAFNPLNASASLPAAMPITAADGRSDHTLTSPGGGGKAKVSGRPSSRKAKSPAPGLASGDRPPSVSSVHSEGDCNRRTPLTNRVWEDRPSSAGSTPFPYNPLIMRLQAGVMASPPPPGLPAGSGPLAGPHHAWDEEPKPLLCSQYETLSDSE

| Compound | IC50 [nM] |
| --- | --- |
| O=C(CCCCCCC(=O)Nc1cccc(C(F)(F)F)c1)NO | 185 |
| O=C(CCCCC[C@H](NC(=O)[C@H]1CCC(=O)N1)C(=O)Nc1cccc(C(F)(F)F)c1)NO | 2 |
| Cc1cccc(NC(=O)CCCCCCC(=O)NO)c1 | 216 |
| Cc1cccc(NC(=O)[C@H](CCCCCC(=O)NO)NC(=O)[C@H]2CCC(=O)N2)c1 | 11 |
| Cc1ccc(NC(=O)CCCCCCC(=O)NO)cc1 | 452 |
| Cc1ccc(NC(=O)[C@H](CCCCCC(=O)NO)NC(=O)[C@H]2CCC(=O)N2)cc1 | 66 |
| O=C(CCCCC[C@H](NC(=O)[C@@H]1CCCC(=O)N1)C(=O)NCCc1ccccc1)NO | 539 |
| O=C(CCCCC[C@H](NC(=O)[C@H]1CCC(=O)N1)C(=O)NCCc1ccccc1)NO | 144 |
| O=C(CCCCC[C@H](NC(=O)[C@@H]1CCCC(=O)N1)C(=O)Nc1ccccc1)NO | 20 |

Target: Histone deacetylase 2 (Homo sapiens, UniProt Q92769)
Test: Inhibition of human HDAC2 using RHKK(Ac) as substrate by fluorimetric analysis
Settings: not given

Sequence of Histone deacetylase 2 (Q92769 whole entry): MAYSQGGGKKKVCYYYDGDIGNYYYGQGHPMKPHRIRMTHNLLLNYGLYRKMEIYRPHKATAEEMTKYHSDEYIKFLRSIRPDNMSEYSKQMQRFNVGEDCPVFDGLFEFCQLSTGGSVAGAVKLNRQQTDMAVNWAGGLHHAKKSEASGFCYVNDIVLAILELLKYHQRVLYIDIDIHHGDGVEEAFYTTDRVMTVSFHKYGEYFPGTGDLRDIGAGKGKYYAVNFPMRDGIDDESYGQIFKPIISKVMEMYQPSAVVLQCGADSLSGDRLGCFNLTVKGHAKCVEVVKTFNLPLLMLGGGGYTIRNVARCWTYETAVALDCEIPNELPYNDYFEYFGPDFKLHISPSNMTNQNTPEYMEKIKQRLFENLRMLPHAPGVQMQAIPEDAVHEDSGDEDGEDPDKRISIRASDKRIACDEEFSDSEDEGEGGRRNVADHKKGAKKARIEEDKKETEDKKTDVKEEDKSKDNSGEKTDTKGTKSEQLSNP

| Compound | IC50 [nM] |
| --- | --- |
| O=C(CCCCCCC(=O)Nc1cccc(C(F)(F)F)c1)NO | 165 |
| O=C(CCCCC[C@H](NC(=O)[C@H]1CCC(=O)N1)C(=O)Nc1cccc(C(F)(F)F)c1)NO | 8 |
| Cc1cccc(NC(=O)[C@H](CCCCCC(=O)NO)NC(=O)[C@H]2CCC(=O)N2)c1 | 27 |
| Cc1ccc(NC(=O)CCCCCCC(=O)NO)cc1 | 589 |
| Cc1ccc(NC(=O)[C@H](CCCCCC(=O)NO)NC(=O)[C@H]2CCC(=O)N2)cc1 | 93 |
| O=C(CCCCC[C@H](NC(=O)[C@@H]1CCCC(=O)N1)C(=O)NCCc1ccccc1)NO | 956 |
| O=C(CCCCC[C@H](NC(=O)[C@H]1CCC(=O)N1)C(=O)NCCc1ccccc1)NO | 180 |
| O=C(CCCCC[C@H](NC(=O)[C@@H]1CCCC(=O)N1)C(=O)Nc1ccccc1)NO | 89 |

Target: Histone deacetylase 1 (Homo sapiens, UniProt Q13547)
Test: Inhibition of human HDAC1 using RHKK(Ac) as substrate by fluorimetric analysis
Settings: not given

Sequence of Histone deacetylase 1 (Q13547 whole entry): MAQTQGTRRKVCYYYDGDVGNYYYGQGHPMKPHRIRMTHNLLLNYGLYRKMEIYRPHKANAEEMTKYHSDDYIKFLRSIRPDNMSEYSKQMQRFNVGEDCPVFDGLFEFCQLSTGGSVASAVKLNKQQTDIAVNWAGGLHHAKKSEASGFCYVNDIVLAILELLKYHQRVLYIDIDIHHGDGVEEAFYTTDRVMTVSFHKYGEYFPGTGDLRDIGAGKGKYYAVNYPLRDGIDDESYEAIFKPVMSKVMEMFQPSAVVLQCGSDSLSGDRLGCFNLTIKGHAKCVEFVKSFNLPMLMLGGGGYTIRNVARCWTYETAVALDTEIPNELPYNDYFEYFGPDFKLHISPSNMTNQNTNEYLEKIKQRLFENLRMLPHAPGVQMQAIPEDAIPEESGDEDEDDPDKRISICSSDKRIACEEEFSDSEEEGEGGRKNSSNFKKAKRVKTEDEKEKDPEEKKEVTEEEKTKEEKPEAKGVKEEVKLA

| Compound | IC50 [nM] |
| --- | --- |
| O=C(CCCCCCC(=O)Nc1cccc(C(F)(F)F)c1)NO | 63 |
| O=C(CCCCC[C@H](NC(=O)[C@H]1CCC(=O)N1)C(=O)Nc1cccc(C(F)(F)F)c1)NO | 2 |
| Cc1cccc(NC(=O)CCCCCCC(=O)NO)c1 | 197 |
| Cc1cccc(NC(=O)[C@H](CCCCCC(=O)NO)NC(=O)[C@H]2CCC(=O)N2)c1 | 7 |
| Cc1ccc(NC(=O)CCCCCCC(=O)NO)cc1 | 200 |
| Cc1ccc(NC(=O)[C@H](CCCCCC(=O)NO)NC(=O)[C@H]2CCC(=O)N2)cc1 | 32 |
| O=C(CCCCC[C@H](NC(=O)[C@@H]1CCCC(=O)N1)C(=O)NCCc1ccccc1)NO | 102 |
| O=C(CCCCC[C@H](NC(=O)[C@H]1CCC(=O)N1)C(=O)NCCc1ccccc1)NO | 77 |
| O=C(CCCCC[C@H](NC(=O)[C@@H]1CCCC(=O)N1)C(=O)Nc1ccccc1)NO | 25 |
